Source: patent US6605305B2, “Plant drug for treatment of liver disease” (priority 2001, dated 2003)
Marks after values point to notes of the source that are not given here.

Legend:
Lipoperoxides = test: Liver lipoperoxides (MDA) after CCl4; type: in vivo, mice
Method: Female Balb/c mice (22-24 g) were maintained at 20° C. and a 12 hours light/dark cycle. The food and water allowed adliboti. Mice were randomly assigned to groups of 20 individuals. Twenty-four hours after the last dosing, animals were administered an oral dose of CCl4 (1%, v/v, in olive oil) at 1.0 mmol/kg. In treatment group, mice were treated intragastrically with SCS at daily dose of 50 mg/kg for 4 days. Control animals were given the vehicle (i.e. olive oil, 1 mL/kg). […]
The experiments were performed as previously described.
In the present study, the effect of SCS on lipoperoxides was examined.

Benzpyrene hydroxylase = test: Hepatic microsomal monooxygenases: benzpyrene hydroxylase; type: in vivo; settings: rat liver microsomes, treatment group
Glutathione (GSH) = test: Hepatic mitochondrial GSH level in CCl4-treated mice; type: in vivo; settings: CCl4 + SCS
Method: (§1) Female Balb/c mice (22-24 g) were maintained at 20° C. and a 12 hours light/dark cycle. The food and water allowed adliboti. Mice were randomly assigned to groups of 20 individuals. Twenty-four hours after the last dosing, animals were administered an oral dose of CCl4 (1%, v/v, in olive oil) at 1.0 mmol/kg. In treatment group, mice were treated intragastrically with SCS at daily dose of 50 mg/kg for 4 days. Control animals were given the vehicle (i.e. olive oil, 1 mL/kg). Twenty-four hours after intoxication, heparinized blood samples were drawn from ether-anesthetized mice by cardiac puncture, and the animals were killed by cardiac excision thereafter.
(§2) The rats were starved overnight before decapitation. The livers were perfused in situ with ice-cold 1.15% KCl solution. Tissue homogenate was prepared by homogenizing 1 g of hepatic tissue sample in 10 mL ice-cold homogenizing buffer with two 10-secbursts of atissue disintegrator at 135,000 rpm. Hepatic mitochondrial fraction was prepared by differential centrifugation in isotonic buffer ([…], 0.1 mM EDTA, 5 mM Tris, pH 7.4).
(§3) The experiments of animal and livers were performed as previously described. Glutathione (GSH) level was determined by an HPLC method. In the present study, the effect of SCS on GHS and GRD were examined.

Aminopyrine demethylase = test: Hepatic microsomal monooxygenases: aminopyrine demethylase; type: in vivo; settings: rat liver microsomes, treatment group
3924A = test: DNA synthesis of cancer cells ([^3H]TdR incorporation), 3924A; type: in vivo, rats
Method: (§4) The method of animal and liver was described previously. Ascitric hepatoma, S180-ν, the transplantable 3924 used. After treatment with SCS (100 mg/kg), rats were injected with [^3H]-TdR (10 μc/μmole). Two hours after injection the animals were decapitated and examined. Livers and tumors were rapidly removed and blotted on filter paper. Tumors were carefully dissected free of necrotic, hemorrhagic, and nontumorous material. Tissues were minced with sharp scissors and 2 gm. DNA was prepared from the tissues. The radioactivity of the DNA was determined by liquid scintillation counting.
(§5) The incorporation of thymidine into DNA ws expressed as cpm/mg of DNA or cpm/gm of tissue.

YAC-1 = test: NK cell activity of mice (^51Cr release), YAC-1 target cells; type: in vivo; settings: oral dose of 100 mg/kg
Hepatoma = test: DNA synthesis of cancer cells ([^3H]TdR incorporation), hepatoma; type: in vivo, rats
Method: as §4, §5

[1] = tested on: NADPH-cytochrome Creductase; test: Hepatic microsomal monooxygenases: NADPH-cytochrome C reductase; type: in vivo; settings: rat liver microsomes, treatment group
c-myb RNA = test: Inhibition of oncogene expression in ML-1 cells (northern blot), c-myb; type: cell-based, Human
Method: (§6) Human myeloblastic leukemic cells (ML-1) were maintained in suspension culture in RPMI 1640 medium supplemented with 7.5% heat-inactivated FBS. Cells growth and viability were assayed by hemocytometer using trypan-blue dye exclusion.
(§7) RNA was isolated by the CsCl gradient modification. RNA pellets were washed twice by reprecipitation in ethanol and quantitated by absorbency at […]. RNA analyzed by electrophoresis of 15 μg of RNA through 1.2% agarose formaldehyde gels followed by northern blot transfer to nitrocellulose.
(§8) Single-standard uniformly labeled DNA probes were prepared. Probe of c-myc was a 1.7 Kb cla-Eco RI restriction fragment containing the 3′exon region of human c-myc and probe of c-myb was 1.0 Kb myb-specific Bam HI fragment. Probes for n-ras contained DNA fragments using a modification of the PCR technique. Probes for myb, myc and n-ras were isolated. The isolated fragments were labeled to high specific activity with [α^32P]-dCTP (3000 ci/mmol).
(§9) Prehybridization of the filter was performed. The hybridization mixer contained 50,000 cpm of probe. The probes were hybridized at 58° C. in 15 mM NaCl, […] sodium citrate for 3 hours. After hybridization, they were exposed to XAR-5 film. Oncogene expression was quantitated by densitometer scanning of the autoradiography.

RBL-5 = test: NK cell activity of mice (^51Cr release), RBL-5 target cells; type: in vivo; settings: oral dose of 100 mg/kg
ATP = ATP concentration with TET; type: biochemical; settings: TET 5 μl/L + SCS (100 μmol/L)
Method: In present study, the effect of SCS on ATP and oxygen consumption was examined. The experiments of animal and livers were performed as previously described.

Gastric cancer cells = test: Effect of SCS on p^53 mutations of cancer cells (PCR-SSCP); type: cell-based; settings: Gastric cancer cells treated by SCS
GRD = test: Hepatic GRD activity in CCl4-treated mice; type: in vivo
Method: as §1, §2, §3

S-180 = test: DNA synthesis of cancer cells ([^3H]TdR incorporation), S-180; type: in vivo, rats
Method: as §4, §5

[2] = tested on: Serum alamine aminotransferase (ALT); test: Serum ALT activity in CCl4-intoxicated mice; type: in vivo
Method: as §1
Animal section described as previously. Plasma was obtained by centrifugation. The whole blood at 2000×g at 4° C. Serum alamine aminotransferase (ALT) activity was determined by assay kit from Sigma Chemical Co.

c-myc RNA = test: Inhibition of oncogene expression in ML-1 cells (northern blot), c-myc; type: cell-based, Human
Method: as §6, §7, §8, §9

[3] = tested on: ethanol-induced gastric mucosal damage; test: Ethanol-induced gastric mucosal damage; type: in vivo, rats
Method: The experiment of animal was performed as previously described. Mucosal damage in gastrointestinal tract was induced ethanol or indomethacin administration. In ethanol-treated animals, after 24 hours of fasting, ethanol was given orally (70%, v/v, 10 ml/kg) by means of an oral gastric. Mucosal damage was assessed by measurement of areas with hemorrhagic lesion. In the indomethacin ulcer model, rats were refed for 1 hour after 24 hours of fasting. Thirty minutes later, indomethacin (15 mg/kg) was administered subcutaneously and rats were killed 24 hours later. Mucosal lesions were again measured along the greatest diameter. […] SCS administration was repeated again 6 hours after indomethacin injection.

Cytochrome P-450 = settings: rat, in vivo

COc1cc2c(c(OC)c1OC)-c1c(cc(OC)c(OC)c1OC)C[C@](C)(O)[C@@H](C)C2 [SCS, Schisandrin]
Lipoperoxides T/C (Lipoperoxides; 12 h): 40%
Lipoperoxides (mmol MDA/g liver protein) (Lipoperoxides; 24 h): 0.50 ± 0.58 mmol MDA/g liver protein
Lipoperoxides T/C (Lipoperoxides; 24 h): 22%
Benzpyrene hydroxylase (Benzpyrene hydroxylase): 51.8 ± 6.5 nmol/mg protein
GSH (Glutathione (GSH)): 21.8 ± 2.0 nmol/mg protein
Aminopyrine demethylase (Aminopyrine demethylase): 180.0 ± 20 nmol HCHO/mg protein
Tissue inhibition rate (%) (3924A; 3924A t versus C): 52.6%
[^3H]TdR into DNA × 10^−3 cm/mg (3924A; 3924A t, SCS 100 mg/kg): 38.7 ± 4.8 × 10^−3 cm/mg
% Specific lysis (mean ± SEM) YAC-1 (YAC-1; effector/target 50:1): 45.0 ± 3.6 %
% Specific lysis (mean ± SEM) YAC-1 (YAC-1; effector/target 100:1): 64.0 ± 7.1%
Tissue inhibition rate (%) (Hepatoma; Hepatoma T versus C): 56.4%
[^3H]TdR into DNA × 10^−3 cm/mg (Hepatoma; Hepatoma T, SCS 100 mg/kg): 8.8 ± 0.80 × 10^−3 cm/mg
NADPH-cytochrome Creductase [1]: 202.5 ± 22 nmol/mg protein
Inhibition (%) c-myb RNA (c-myb RNA; SCS concentration 10 ng/ml): 65.0 ± 5.7%
Inhibition (%) c-myb RNA (c-myb RNA; SCS concentration 50 ng/ml): 67.7 ± 6.8%
% Specific lysis (mean ± SEM) RBL-5 (RBL-5; effector/target 50:1): 12.1 ± 1.2 %
% Specific lysis (mean ± SEM) RBL-5 (RBL-5; effector/target 100:1): 19.8 ± 2.0 %
ATP (ATP): 35.8 ± 4.0* 100 μmol/L
Frequency of p^53 mutations (%) (Gastric cancer cells): 10%
GRD (GRD; CCl4 + SCS): 50.6 ± 6.0 mU/mg protein
GRD activity T/C (GRD; treatment versus CCl4 control): 347%
GRD activity T/N (GRD; treatment versus normal group): 145%
Tissue inhibition rate (%) (S-180; S-180 T versus C): 43.2%
[^3H]TdR into DNA × 10^−3 cm/mg (S-180; S-180 T, SCS 100 mg/kg): 39.8 ± 5.2 × 10^−3 cm/mg
ALT (X ± S) ([2]; CCl4 + SCS, serum, mice, SCS 50 mg/kg intragastrically daily for 4 days): 68.8 ± 7.0 U L^−1
CCl4 toxicity decreased by SCS (ALT) ([2]; CCl4 mice, versus control): 87.9%
Inhibition (%) c-myc RNA (c-myc RNA; SCS concentration 10 ng/ml): 70.5 ± 8.5%
Inhibition (%) c-myc RNA (c-myc RNA; SCS concentration 50 ng/ml): 70.8 ± 8.9%
Lesion area (mm^2) gastric antrum ([3]; SCS 10 mg/kg): 2.5 ± 0.35* mm^2
Lesion area (mm^2) gastric antrum ([3]; SCS 25 mg/kg): 2.0 ± 0.23** mm^2
Lesion area (mm^2) gastric antrum ([3]; SCS 50 mg/kg): 1.7 ± 0.20** mm^2
Cytochrome P-450 (Cytochrome P-450): 2.80 ± 0.30 nmol/mg protein
